Measurements reported in patent publication US8530493B2, “Indolopyridines as Eg5 kinesin modulators” (4SC AG, priority 2006, dated 2013).

System: RKO p21 uninduced (proliferating) colon adenocarcinoma cells
Assay: Alamar Blue cell viability assay, RKO p21 uninduced (proliferating)
Format: cell-based
Settings: Homo sapiens, Table B3, anti-proliferative/cytotoxic activity, 72 hours, read-out: −log EC50 RKO p21 uninduced (proliferating) (converted)
How it was run: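 Viability read by Alamar Blue fluorescence (ex 544, em 590 nm), normalised to untreated wells, after 72 h, 37° C, 5% CO2 compound exposure in triplicate. Cells were uninduced (no Ponasterone A), proliferating RKO colon carcinoma p27 or p21 subclones in DMEM with 10% FCS; values are −log EC50 (mol/l).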

Compound	EC50
COc1cc2c3c([nH]c2cc1F)[C@@H](c1cccc(O)c1)N1C(=O)N(CCCNC(C)C)C(=O)[C@]1(C)C3 (racemic) [Example 331, (3aSR,10RS)-7-Fluoro-10-(3-hydroxy-phenyl)-2-{3-isopropylamino-propyl)-6-methoxy-3a-methyl-3a,4,9,10-tetrahydro-2,9,10a-triaza-cyclopenta[b]fluorene-1,3-dione]	39.8 to 251 nM
COc1cc2c3c([nH]c2cc1F)[C@@H](c1cccc(O)c1)N1C(=O)N(CCCNCC(C)C)C(=O)[C@]1(C)C3 (racemic) [Example 332, (3aSR,10RS)-7-Fluoro-10-(3-hydroxy-phenyl)-2-(3-isobutylamino-propyl)-6-methoxy-3a-methyl-3a,4,9,10-tetrahydro-2,9,10a-triaza-cyclopenta[b]fluorene-1,3-dione]	39.8 to 251 nM
COc1cc2c3c([nH]c2cc1F)[C@@H](c1cccc(O)c1)N1C(=O)N(CCCNC2CCC2)C(=O)[C@]1(C)C3 (racemic) [Example 333, (3aSR,10RS)-2-(3-Cyclobutylamino-propyl)-7-fluoro-10-(3-hydroxy-phenyl)-6-methoxy-3a-methyl-3a,4,9,10-tetrahydro-2,9,10a-triaza-cyclopenta[b]fluorene-1,3-dione]	39.8 to 251 nM
C=CCNCCCN1C(=O)N2[C@H](c3cccc(O)c3)c3[nH]c4cc(F)c(OC)cc4c3C[C@@]2(C)C1=O (racemic) [Example 334, (3aSR,10RS)-2-(3-Allylamino-propyl)-7-fluoro-10-(3-hydroxy-phenyl)-6-methoxy-3a-methyl-3a,4,9,10-tetrahydro-2,9,10a-triaza-cyclopenta[b]fluorene-1,3-dione]	39.8 to 251 nM
CN(C)CCCN1C(=O)N2[C@H](c3cccc(O)c3)c3[nH]c4cc(F)c(Cl)cc4c3C[C@@]2(C)C1=O (racemic) [Example 335, (3aSR,10RS)-6-Chloro-2-(3-dimethylamino-propyl)-7-fluoro-10-(3-hydroxy-phenyl)-3a-methyl-3a,4,9,10-tetrahydro-2,9,10a-triaza-cyclopenta[b]fluorene-1,3-dione]	39.8 to 251 nM
CCN(CC)CCN1C(=O)N2[C@H](c3cccc(O)c3)c3[nH]c4cc(F)c(Cl)cc4c3C[C@@]2(C)C1=O (racemic) [Example 336, (3aSR,10RS)-6-Chloro-2-(2-diethylamino-ethyl)-7-fluoro-10-(3-hydroyx-phenyl)-3a-methyl-3a,4,9,10-tetrahydro-2,9,10a-triaza-cyclopenta[b]fluorene-1,3-dione]	39.8 to 251 nM
CNCCN1C(=O)N2[C@H](c3cccc(O)c3)c3[nH]c4cc(F)c(Cl)cc4c3C[C@@]2(C)C1=O (racemic) [Example 337, (3aSR,10RS)-6-Chloro-7-fluoro-10-(3-hydroxy-phenyl)-3a-methyl-2-(2-methylamino-ethyl)-3a,4,9,10-tetrahydro-2,9,10a-triaza-cyclopenta[b]fluorene-1,3-dione]	≤ 39.8 nM
CCNCCN1C(=O)N2[C@H](c3cccc(O)c3)c3[nH]c4cc(F)c(Cl)cc4c3C[C@@]2(C)C1=O (racemic) [Example 338, (3aSR,10RS)-6-Chloro-2-(2-ethylamino-ethyl)-7-fluoro-10-(3-hydroxy-phenyl)-3a-methyl-3a,4,9,10-tetrahydro-2,9,10a-triaza-cyclopenta[b]fluorene-1,3-dione]	≤ 39.8 nM
CC(C)NCCN1C(=O)N2[C@H](c3cccc(O)c3)c3[nH]c4cc(F)c(Cl)cc4c3C[C@@]2(C)C1=O (racemic) [Example 339, (3aSR,10RS)-6-Chloro-7-fluoro-10-(3-hydroxy-phenyl)-2-(2-isopropylamino-ethyl)-3a-methyl-3a,4,9,10-tetrahydro-2,9,10a-triaza-cyclopenta[b]fluorene-1,3-dione]	≤ 39.8 nM
CC(C)CNCCN1C(=O)N2[C@H](c3cccc(O)c3)c3[nH]c4cc(F)c(Cl)cc4c3C[C@@]2(C)C1=O (racemic) [Example 340, (3aSR,10RS)-6-Chloro-7-fluoro-10-(3-hydroxy-phenyl)-2-(2-isobutylamino-ethyl)-3a-methyl-3a,4,9,10-tetrahydro-2,9,10a-triaza-cyclopenta[b]fluorene-1,3-dione]	39.8 to 251 nM
